Data published in the OPERA property sets (Mansouri et al. 2018).

Conditions: not given

Point of comparison: `CC(C)N(C(=O)SCC(Cl)=CCl)C(C)C`, log10 Koc (L/kg) 3.28. Against it:
- NC(=O)Nc1cccc(Cl)c1 — lower, 2.01
- O=c1ccc(=O)[nH][nH]1 — lower, 0.45
- CCOC(=O)c1ccccc1C(=O)OCC — lower, 1.84
- NC(=O)Nc1cccc(C(F)(F)F)c1 — lower, 1.98
- Clc1cc(-c2cc(Cl)c(Cl)c(Cl)c2Cl)c(Cl)c(Cl)c1Cl — higher, 6.41
- CCCSP(=O)(OCC)Oc1ccc(Br)cc1Cl (stereo not given) — lower, 3.03
- Cc1ccc(C(=O)O)cc1 — lower, 1.77
- CCOP(=O)(OCC)SCCSCC — lower, 1.85
- CC(=O)Nc1cccc(F)c1 — lower, 1.57

Point of comparison: `O=C(O)C1CC1`, melting point 18.5 °C. Against it:
- Oc1ccc2c(c1)[C@@]13CCCC[C@H]1[C@@H](C2)N(CCc1ccccc1)CC3 — higher, 244 °C
- C[C@H]1CC[C@@H]2[C@@H](C)[C@H]3[C@H](C[C@H]4[C@@H]5CC=C6C[C@@H](O)CC[C@]6(C)[C@H]5CC[C@]34C)N2C1 — higher, 218 °C
- O=c1occcc1O — higher, 93.8 °C
- O=C=Nc1ccc(-c2ccccc2)cc1 — higher, 56 °C
- C=CCC(C)C — lower, -154 °C
- CC[C@@](C)(O)C(=O)O — higher, 74 °C
- C=CC(=O)NC(C)(C)CC(C)=O — higher, 57.5 °C
- OCc1cccc(O)c1 — higher, 73 °C
- CCCCNC(=O)COC(=O)c1ccccc1 — higher, 69.5 °C
- NC(=O)CCCCC1CCSS1 (stereo not given) — higher, 128 °C
- CN(Cc1cc(Br)cc(Br)c1N)C1CCCCC1 — higher, 238 °C
- O=c1ccc(=O)[nH][nH]1 — higher, 306 °C
- O=Cc1cc(Cl)ccc1Cl — higher, 58 °C
- CCCCCCl — lower, -99 °C
- CCCF — lower, -159 °C
- FC(F)(F)c1cccc(Cl)c1 — lower, -56 °C
- NNC(=O)Nc1ccccc1 — higher, 128 °C
- Nc1cccc(-c2cccc(N)c2)c1 — higher, 93.5 °C
- CCC(CC)C(=O)O — lower, -31.8 °C
- c1ccc(CNc2[nH]cnc3ncnc2-3)cc1 — higher, 233 °C
- OCc1ccc(Cl)cc1 — higher, 75 °C
- CCN(CC)CCCN(c1ccccc1)C1Cc2ccccc2C1 — higher, 120 °C
- CCN(CC)C(=O)n1cnc(S(=O)(=O)c2c(C)cc(C)cc2C)n1 — higher, 115 °C
- CCOC(=O)c1ccccc1C(=O)OCC — lower, -40.5 °C
- Oc1ccc(O)c(-c2ccccc2)c1 — higher, 102 °C
- COc1cc2c(cc1O)C(Cc1ccc(OC)c(OC)c1)N(C)CC2 (stereo not given) — higher, 127 °C
- OCC(Cc1ccccc1)c1ccccc1 (stereo not given) — higher, 51 °C
- Cc1cc(C)c(C)c(O)c1C — higher, 118 °C
- O=C1CSC(=S)N1c1ccccc1 — higher, 194 °C
- Brc1cc(Br)c(Br)c(Br)c1 — higher, 99.5 °C
- CC(C)N(C(=O)SCC(Cl)=CCl)C(C)C — higher, 25 °C
- C#CC — lower, -103 °C
- COc1ccc(C=O)c(C(=O)O)c1OC — higher, 150 °C
- COC(=O)C(Cl)Cl — lower, -51.9 °C
- c1ccc(Cc2nc3ccccc3[nH]2)cc1 — higher, 187 °C
- CC(C)(C)C(O)(CCc1ccc(Cl)cc1)Cn1cncn1 (stereo not given) — higher, 102 °C
- O[C@H](CS)[C@H](O)CS — higher, 62.8 °C
- COc1cccc(Cl)c1Cl — higher, 32 °C
- CCCCCCCCNC(C)C(O)c1ccc(SC(C)C)cc1 (stereo not given) — higher, 62.5 °C
- C[C@H](CCC(=O)NCC(=O)O)[C@H]1CC[C@H]2[C@@H]3[C@H](O)C[C@@H]4C[C@H](O)CC[C@]4(C)[C@H]3C[C@H](O)[C@]12C — higher, 166 °C
- C[C@H]1CC(=O)C[C@@H]2CC[C@H]3[C@@H]4CC[C@H](O)[C@@]4(C)CC[C@@H]3[C@]21C — higher, 204 °C
- Cc1ccc(C(=O)O)cc1 — higher, 180 °C
- CCC(=O)c1ccccc1 — higher, 18.6 °C
- CC=CC=CC=CC=O — higher, 56.8 °C
- CC[N+](C)(C)CCN(C)CC[N+](C)(C)CC.[Br-].[Br-] — higher, 214 °C
- ON=C1CCCCC1 — higher, 90 °C
- Cc1ccc(CO)cc1 — higher, 61.5 °C
- Brc1ccncc1 — lower, 0.5 °C
- C=C1CC[C@H](O)C/C1=C/C=C1\CCC[C@]2(C)[C@@H]([C@H](C)CCCC(C)C)CC[C@@H]12 — higher, 84.5 °C
- CCOC(=O)c1ccccc1N — lower, 13 °C
- CC(Br)CCCBr (stereo not given) — lower, -34.4 °C
- CC#CCO — lower, -2.2 °C
- Cc1cc(Cl)ccc1[N+](=O)[O-] — higher, 25.5 °C
- COC(=O)CCCCCCCCCCC(=O)OC — higher, 31.9 °C
- O=C(O)c1c(Cl)c(Cl)c(Cl)c(Cl)c1Cl — higher, 209 °C
- CNO — higher, 87.5 °C
- COc1cc(OC)nc(N=C(O)NS(=O)(=O)Nc2ccccc2C(=O)C2CC2)n1 — higher, 162 °C
- CC(C)(N)C(=O)O — higher, 335 °C
- SCc1ccccc1 — lower, -30 °C
- CC(C)(O)Cc1ccc(Cl)cc1 — higher, 34 °C
- CCCCCCCCCCCCCCCCCCCC(=O)O — higher, 75.4 °C
- ICCCCCCI — lower, 9.5 °C
- CCOC(=O)C(C)C — lower, -88.2 °C
- O=[N+]([O-])c1cccc(Br)c1 — higher, 56 °C
- CCCCCCCCCCCCCCCC(=O)[O-].[Na+] — higher, 286 °C
- CC(=O)Nc1cccc(F)c1 — higher, 83 °C
- CC(C)COC=O — lower, -95.8 °C
- COP(=O)(OC)OC — lower, -46 °C
- CCOC(=O)CC(=O)OCC — lower, -50 °C
- NC(=O)CBr — higher, 89 °C
- NCCNCCNCCNCCN — lower, -30 °C

Point of comparison: `NN1CCCCC1`, boiling point 147 °C. Against it:
- O=C=Nc1ccc(-c2ccccc2)cc1 — higher, 283 °C
- C=CCC(C)C — lower, 53.9 °C
- O=Cc1cc(Cl)ccc1Cl — higher, 232 °C
- CCCCCCl — lower, 108 °C
- CCCF — lower, 2.5 °C
- CCCCC(CC)COCC(CC)CCCC (stereo not given) — higher, 269 °C
- FC(F)(F)c1cccc(Cl)c1 — lower, 138 °C
- CCC(CC)C(=O)O — higher, 194 °C
- OCc1ccc(Cl)cc1 — higher, 235 °C
- C=C(CC)C(C)C — lower, 89 °C
- CCOC(=O)c1ccccc1C(=O)OCC — higher, 295 °C
- CC(C)(O)CCO — higher, 202 °C
- COc1ccccc1CO — higher, 249 °C
- O=C(O)C1CC1 — higher, 183 °C
- OCC(Cc1ccccc1)c1ccccc1 (stereo not given) — higher, 310 °C
- Cc1cc(C)c(C)c(O)c1C — higher, 247 °C
- Cn1cccn1 — lower, 127 °C
- Brc1cc(Br)c(Br)c(Br)c1 — higher, 329 °C
- C#CC — lower, -23.2 °C
- C[Si](C)(C)CCl — lower, 98.5 °C
- COC(=O)C(Cl)Cl — lower, 143 °C
- FC(F)=C(F)Br — lower, -1 °C
- CCCCCC=CC(C)C — higher, 161 °C
- FCOC(F)(F)C(F)F — lower, 53.6 °C
- COC=Cc1ccccc1 — higher, 212 °C
- CCC(=O)c1ccccc1 — higher, 218 °C
- ON=C1CCCCC1 — higher, 206 °C
- Cc1ccc(CO)cc1 — higher, 217 °C
- CC(C)=C1CCC(C)CC1 (stereo not given) — higher, 173 °C
- CCOC(=O)c1ccccc1N — higher, 268 °C
- CC(C)CCc1ccccc1 — higher, 195 °C
- CC#CCO — higher, 148 °C
- SCc1ccccc1 — higher, 194 °C
- CCCCCCCCCCCCCCCCCCCC(=O)O — higher, 328 °C
- CCOC(=O)C(C)C — lower, 110 °C
- O=[N+]([O-])c1cccc(Br)c1 — higher, 256 °C
- CC(=O)C1(O)CCCCC1 — lower, 126 °C
- CC(C)COC=O — lower, 98.2 °C
- COP(=O)(OC)OC — higher, 197 °C
- CCOC(=O)CC(=O)OCC — higher, 200 °C
- NCCNCCNCCNCCN — higher, 342 °C
- CCCCC(C)O (stereo not given) — lower, 136 °C

For `CCCCC(CC)COC(=O)C=CC(=O)OCC(CC)CCCC` (stereo not given), the ready biodegradability was “readily biodegradable”.
In the case of `C=CCC(C)C`, the ready biodegradability is reported as “not readily biodegradable”.
For `O=S(=O)(O)c1cccc2c(S(=O)(=O)O)cccc12`, the ready biodegradability was “readily biodegradable”.
For `O=c1ccc(=O)[nH][nH]1`, the ready biodegradability was “readily biodegradable”.
In the case of `FC(F)(F)c1cccc(Cl)c1`, the ready biodegradability is reported as “not readily biodegradable”.
For `C=CC(=O)OCCn1c(=O)n(CCOC(=O)C=C)c(=O)n(CCOC(=O)C=C)c1=O`, the ready biodegradability was “not readily biodegradable”.
With `CCC(CC)C(=O)O` the ready biodegradability was “readily biodegradable”.
With `CCOC(=O)c1ccccc1C(=O)OCC` the ready biodegradability was “not readily biodegradable”.
For `N#Cc1cc([N+](=O)[O-])ccc1N`, the ready biodegradability was “not readily biodegradable”.
In the case of `Cc1ccc(C(=O)O)cc1`, the ready biodegradability is reported as “readily biodegradable”.
With `CCC(=O)c1ccccc1` the ready biodegradability was “readily biodegradable”.
With `O=C(OCCO)c1ccc(C(=O)OCCO)cc1` the ready biodegradability was “readily biodegradable”.
For `COP(=O)(OC)OC`, the ready biodegradability was “not readily biodegradable”.
With `CCOC(=O)CC(=O)OCC` the ready biodegradability was “readily biodegradable”.
With `CCCCC(C)O` (stereo not given) the ready biodegradability was “not readily biodegradable”.

Point of comparison: `CC(C)(C)C(O)(CCc1ccc(Cl)cc1)Cn1cncn1` (stereo not given), log10 vapour pressure (mmHg) -7.89. Against it:
- C=CCC(C)C — higher, 2.43
- CCOC(=O)CC(=O)c1ccccc1 — higher, -3.39
- CCCCCCl — higher, 1.52
- CCCF — higher, 3.3
- CCC(CC)C(=O)O — higher, -0.726
- c1ccc(CNc2[nH]cnc3ncnc2-3)cc1 — lower, -10.7
- CCN(CC)C(=O)n1cnc(S(=O)(=O)c2c(C)cc(C)cc2C)n1 — lower, -10.6
- CCOC(=O)c1ccccc1C(=O)OCC — higher, -2.68
- O=C(O)C1CC1 — higher, -0.62
- CCCCC(CC)CN1C(=O)C2C3C=CC(C3)C2C1=O (stereo not given) — higher, -4.74
- CC(C)N(C(=O)SCC(Cl)=CCl)C(C)C — higher, -3.82
- C#CC — higher, 3.63
- COC(=O)C(Cl)Cl — higher, 0.654
- FC(F)=C(F)Br — higher, 3.29
- CCCSP(=O)(OCC)Oc1ccc(Br)cc1Cl (stereo not given) — higher, -6.05
- FCOC(F)(F)C(F)F — higher, 2.37
- Cc1ccc(C(=O)O)cc1 — higher, -4.29
- CCC(=O)c1ccccc1 — higher, -0.77
- ON=C1CCCCC1 — higher, -1.55
- CNO — higher, 0.222
- SCc1ccccc1 — higher, -0.384
- CCCCCCCCCCCCCCCCCCCC(=O)O — lower, -8.74
- CCOP(=O)(OCC)OP(=O)(OCC)OCC — higher, -3.58
- CCOC(=O)C(C)C — higher, 1.4
- O=[N+]([O-])c1cccc(Br)c1 — higher, -1.15
- CC(C)COC=O — higher, 1.6
- COP(=O)(OC)OC — higher, -0.0706
- CCOC(=O)CC(=O)OCC — higher, -0.57
- CCCCC(C)O (stereo not given) — higher, 0.396

Point of comparison: `CCCCCCl`, log10 Henry constant (atm·m³/mol) -1.62. Against it:
- O=C(NC(=O)c1c(F)cccc1F)Nc1cc(Cl)c(Oc2ncc(C(F)(F)F)cc2Cl)c(Cl)c1 — lower, -11.7
- Clc1cc(-c2cc(Cl)c(Cl)c(Cl)c2Cl)c(Cl)c(Cl)c1Cl — lower, -5
- COP(=O)(OC)OC — lower, -8.14

Same assay, conditions: fish

Point of comparison: `COP(=O)(OC)OC`, log10 BCF 0.15. Against it:
- FC(F)(F)c1cccc(Cl)c1 — higher, 2.35

Point of comparison: `FC(F)(F)c1cccc(Cl)c1`, log10 biotransformation half-life (days) 0.64. Against it:
- CC(C)(C)C(O)(CCc1ccc(Cl)cc1)Cn1cncn1 (stereo not given) — within 0.2 log units, 0.77
- CCCCc1cc2ccccc2c2ccccc12 — lower, 0.29
- Clc1cc(-c2cc(Cl)c(Cl)c(Cl)c2Cl)c(Cl)c(Cl)c1Cl — higher, 3
